Measurements: ChEMBL document CHEMBL6177991, “Discovery of P11-2: A Potent First-in-Class MNK1-Targeting PROTAC Degrader for the Treatment of Cancer” (J Med Chem, 2025)
Calls of active or inactive are those of the source. The rule behind the calls is not given here.

How the values were obtained:
MV4-11 [1] = assay: Induction of MNK2 degradation in human MV4-11 cells at 10 to 1000 nM incubated for 24 hrs by immunoblot analysis; format: cell-based; details: dose 10-1000 nM
[2] = Toxicity in male ICR mouse assessed as change in serum BUN level at 100 mg/kg, ip measured after 14 days; format: organism-based; details: in vivo, 336 h, time 14 day
[3] = Toxicity in male ICR mouse assessed as change in serum ALP level at 100 mg/kg, ip measured after 14 days; format: organism-based; details: in vivo, 336 h, time 14 day
[4] = Hepatotoxicity in nude female NSG mouse xenografted with human MV4-11 cells assessed as change in serum ALP level at 20 mg/kg, ip qd administrated for 16 days; format: toxicity, organism-based; details: in vivo, 384 h, time 16 day
[5] = Toxicity in male ICR mouse assessed as change in serum TBA level at 100 mg/kg, ip measured after 14 days; format: organism-based; details: in vivo, 336 h, time 14 day
[6] = Toxicity in male ICR mouse assessed as histopathological change in lung at 100 mg/kg, ip measured after 14 days by hematoxylin and eosin staining based analysis; format: organism-based; details: in vivo, 336 h, time 14 day
[7] = Toxicity in nude female NSG mouse xenografted with human MV4-11 cells assessed as change in serum creatinine level at 20 mg/kg, ip qd administrated for 16 days; format: organism-based; details: in vivo, 384 h, time 16 day
[8] = Toxicity in male ICR mouse assessed as histopathological change in kidney at 100 mg/kg, ip measured after 14 days by hematoxylin and eosin staining based analysis; format: organism-based; details: in vivo, 336 h, time 14 day
MV4-11 [9] = assay: Induction of cell cycle arrest in human MV4-11 cells assessed as decrease in accumulation of cells at G2 phase incubated for 24 hrs by PI staining based flow cytometric analysis; format: functional; details: dose 30-300 µM
MV4-11 [10] = assay: Induction of cell cycle arrest in human MV4-11 cells assessed as increase in accumulation of cells at G1 phase at 30 to […] incubated for 24 hrs by PI staining based flow cytometric analysis; format: functional; details: dose lower 30.0 µM
MV4-11 [11] = assay: Induction of apoptosis in human MV4-11 cells assessed as late apoptotic cells at 300 nM incubated for 24 hrs by Annexin V-FITC/PI dual staining based flow cytometric analysis (reference value: 1.48 %); format: functional
Mus musculus = assay: In vivo PROTAC activity at CRBN/MNK1 in human MV4-11 cells xenografted in nude female NSG mouse assessed as reduction in phosphorylated eIF4E level at 20 mg/kg, ip qd administrated for 16 days by Western blot analysis; format: functional, organism-based; details: time 16.0 day
[12] = Hepatotoxicity in nude female NSG mouse xenografted with human MV4-11 cells assessed as change in serum ALT level at 20 mg/kg, ip qd administrated for 16 days; format: toxicity, organism-based; details: in vivo, 384 h, time 16 day
[13] = Tmax in male Sprague-Dawley rat at 5 mg/kg, ip measured up to 24 hrs by LC-MS analysis; format: ADME, organism-based; details: in vivo
MV4-11 [14] = assay: Induction of apoptosis in human MV4-11 cells assessed as late apoptotic cells at 100 nM incubated for 24 hrs by Annexin V-FITC/PI dual staining based flow cytometric analysis (reference value: 1.48 %); format: functional
MV4-11 [15] = assay: Upregulation of cell cycle regulation related protein expression in human MV4-11 cells by GO analysis; format: functional, cell-based
MV4-11 [16] = assay: Upregulation of G2/M transition pathway related protein expression in human MV4-11 cells by GO analysis; format: functional, cell-based
[17] = biological target: Protein cereblon/MAP kinase-interacting serine/threonine-protein kinase 2 (Homo sapiens, UniProt Q96SW2+Q9HBH9); assay: PROTAC activity at CRBN/MNK2 in human MV4-11 cells assessed as inhibition of phosphorylated eIF4E level incubated for 24 hrs by immunoblot analysis; format: cell-based
MV4-11 [18] = assay: Induction of apoptosis in human MV4-11 cells assessed as necrotic cells at 30 nM incubated for 24 hrs by Annexin V-FITC/PI dual staining based flow cytometric analysis (reference value: 0.16 %); format: functional
[19] = Cmax in male Sprague-Dawley rat at 5 mg/kg, ip measured up to 24 hrs by LC-MS analysis; format: ADME, organism-based; details: in vivo
MDA-MB-231 = assay: Anti-proliferative activity against human MDA-MB-231 cells measured after 96 hrs by CCK8 assay; details: MDA-MB-231, 96 h
MV4-11 [20] = assay: Upregulation of ubiquitin-mediated protein degradation pathway related protein expression in human MV4-11 cells by GO analysis; format: functional, cell-based
[21] = Hepatotoxicity in nude female NSG mouse xenografted with human MV4-11 cells assessed as change in serum TBA level at 20 mg/kg, ip qd administrated for 16 days; format: toxicity, organism-based; details: in vivo, 384 h, time 16 day
MV4-11 [22] = assay: Upregulation of ubiquitin-mediated proteolysis pathway related protein expression in human MV4-11 cells by KEGG analysis; format: functional, cell-based
MV4-11 [23] = assay: Upregulation of apoptosis pathway related protein expression in human MV4-11 cells by GO analysis; format: functional, cell-based
MV4-11 [24] = assay: Induction of apoptosis in human MV4-11 cells assessed as early apoptotic cells at 100 nM incubated for 24 hrs by Annexin V-FITC/PI dual staining based flow cytometric analysis (reference value: 3.42 %); format: functional
MV4-11 [25] = assay: Induction of apoptosis in human MV4-11 cells assessed as viable cells at 100 nM incubated for 24 hrs by Annexin V-FITC/PI dual staining based flow cytometric analysis (reference value: 94.9 %); format: functional; details: read-out: Activity
MV4-11 [26] = assay: Induction of apoptosis in human MV4-11 cells assessed as viable cells at 300 nM incubated for 24 hrs by Annexin V-FITC/PI dual staining based flow cytometric analysis (reference value: 94.9 %); format: functional; details: read-out: Activity
MV4-11 [27] = assay: Effect on IKZF1 expression in human MV4-11 cells at 10 to 1000 nM incubated for 24 hrs by immunoblot analysis; format: functional, cell-based; details: dose 10-1000 nM
[28] = Half life in male Sprague-Dawley rat at 1 mg/kg, iv measured up to 24 hrs by LC-MS analysis; format: ADME, organism-based; details: in vivo
[29] = Clearance in male Sprague-Dawley rat at 5 mg/kg, ip measured up to 24 hrs by LC-MS analysis; format: ADME, organism-based; details: in vivo
MV4-11 [30] = assay: Downregulation of SBNO2 expression level in human MV4-11 cells at 300 nM incubated for 24 hrs by DIA-based quantitative proteomics analysis; format: functional, cell-based
[31] = Hepatotoxicity in nude female NSG mouse xenografted with human MV4-11 cells assessed as change in serum TBIL level at 20 mg/kg, ip qd administrated for 16 days; format: toxicity, organism-based; details: in vivo, 384 h, time 16 day
[32] = AUC (0 to t) in male Sprague-Dawley rat at 1 mg/kg, iv measured up to 24 hrs by LC-MS analysis; format: ADME, organism-based; details: in vivo
[33] = Toxicity in nude female NSG mouse xenografted with human MV4-11 cells assessed as change in body weight at 20 mg/kg, ip qd administrated for 16 days; format: organism-based; details: in vivo, 384 h, time 16 day
MV4-11 [34] = assay: Anti-proliferative activity against human MV4-11 cells measured after 72 hrs by CCK8 assay; details: MV4-11, 72 h
MV4-11 [35] = assay: Upregulation of PI3K-Akt pathway related protein expression in human MV4-11 cells by KEGG analysis; format: functional, cell-based
MV4-11 [36] = assay: Induction of apoptosis in human MV4-11 cells assessed as early apoptotic cells at 300 nM incubated for 24 hrs by Annexin V-FITC/PI dual staining based flow cytometric analysis (reference value: 3.42 %); format: functional

Chain of Protein cereblon/MAP kinase-interacting serine/threonine-protein kinase 2 (Q9HBH9 whole entry): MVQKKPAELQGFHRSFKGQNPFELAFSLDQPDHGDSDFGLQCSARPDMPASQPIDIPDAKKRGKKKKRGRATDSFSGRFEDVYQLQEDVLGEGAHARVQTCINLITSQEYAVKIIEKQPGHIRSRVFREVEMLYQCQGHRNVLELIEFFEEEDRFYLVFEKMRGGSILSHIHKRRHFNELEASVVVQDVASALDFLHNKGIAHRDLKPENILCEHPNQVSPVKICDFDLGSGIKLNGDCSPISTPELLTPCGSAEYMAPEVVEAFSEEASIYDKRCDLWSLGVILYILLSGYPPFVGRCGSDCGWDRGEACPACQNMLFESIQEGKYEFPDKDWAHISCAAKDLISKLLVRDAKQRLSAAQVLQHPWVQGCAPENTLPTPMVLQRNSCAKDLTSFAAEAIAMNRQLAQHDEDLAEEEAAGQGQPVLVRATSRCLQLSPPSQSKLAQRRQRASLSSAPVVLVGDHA
Chain of Protein cereblon/MAP kinase-interacting serine/threonine-protein kinase 2 (Q96SW2 whole entry): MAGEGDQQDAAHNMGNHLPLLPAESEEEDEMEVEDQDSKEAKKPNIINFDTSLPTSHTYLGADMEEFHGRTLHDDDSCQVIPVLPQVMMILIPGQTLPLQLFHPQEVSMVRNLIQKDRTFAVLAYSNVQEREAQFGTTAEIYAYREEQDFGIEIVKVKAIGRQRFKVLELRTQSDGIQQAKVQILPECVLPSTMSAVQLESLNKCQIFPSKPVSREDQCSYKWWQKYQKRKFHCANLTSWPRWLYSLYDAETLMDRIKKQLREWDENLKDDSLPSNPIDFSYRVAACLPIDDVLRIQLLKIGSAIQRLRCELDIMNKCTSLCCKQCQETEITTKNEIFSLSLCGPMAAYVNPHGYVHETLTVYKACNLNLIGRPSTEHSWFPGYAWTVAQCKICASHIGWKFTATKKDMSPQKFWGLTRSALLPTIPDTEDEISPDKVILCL

Tmax [13]: 0.5 h
IC50 [17]: 22.1 nM
Cmax [19]: 1970 ng/mL
IC50 (MDA-MB-231): 2060 nM
half-life [28]: 4.3 h
CL/F [29]: 8.75 mL/min/kg
AUC(0-t) at 24 h [32]: 7020 ng·h/mL
IC50 (MV4-11 [34]): 45 nM
SMILES: O=C1CCC(N2Cc3c(NC(=O)CCCCCC(=O)N4CCC(C(=O)Nc5ncc(-c6ccccc6)s5)CC4)cccc3C2=O)C(=O)N1 (stereo not drawn)
Activity (MV4-11 [1]): inactive
Activity [2]: Non-toxic
Activity [3]: Non-toxic
Activity [4]: Non-toxic
Activity [5]: Non-toxic
Activity [6]: Non-toxic
Activity [7]: Non-toxic
Activity [8]: Non-toxic
Activity (MV4-11 [9]): Dose-dependent-effect
Activity (MV4-11 [10]): Active
Activity (MV4-11 [11]): 42.1%
Activity (Mus musculus): Active
Activity [12]: Non-toxic
Activity (MV4-11 [14]): 13.7%
Activity (MV4-11 [15]): Active
Activity (MV4-11 [16]): Active
Activity (MV4-11 [18]): 0.27%
Activity (MV4-11 [20]): Active
Activity [21]: Non-toxic
Activity (MV4-11 [22]): Active
Activity (MV4-11 [23]): Active
Activity (MV4-11 [24]): 14.1%
viability at 0.1 µM (MV4-11 [25]): 71.5%
viability at 0.3 µM (MV4-11 [26]): 28%
Activity (MV4-11 [27]): No effect
Activity (MV4-11 [30]): Active
Activity [31]: Non-toxic
Activity [33]: Non-toxic
Activity (MV4-11 [35]): Active
Activity (MV4-11 [36]): 28.6%
